Test results reported in ChEMBL document CHEMBL1201862, “PubChem BioAssay data set” (2004).
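Each compound was tested at five concentrations against cells in 96-well plates for 48 hours. The concentration for 50% growth inhibition is given as GI50.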 Calls of active or inactive are those of the source. Cut-off read from the data, not from the text of the source: active = GI50 up to about 1.1 µM and inactive = higher.

Legend:
Assay in all cases: NCI tumour cell line growth inhibition, 48 h
LXFL 529 = test system: LXFL 529
HCT-116 = test system: HCT-116
SK-MEL-2 = test system: SK-MEL-2
OVCAR-5 = test system: OVCAR-5
NCI-H522 = test system: NCI-H522
KM12 = test system: KM12
KM-20L2 = test system: KM-20L2
UACC-257 = test system: UACC-257
COLO 205 = test system: COLO 205
OVCAR-8 = test system: OVCAR-8
RPMI-8226 = test system: RPMI-8226
NCI-H460 = test system: NCI-H460
SNB-75 = test system: SNB-75
DMS-273 = test system: DMS-273
SW-620 = test system: SW-620
HOP-18 = test system: HOP-18
TK-10 = test system: TK-10
SK-MEL-5 = test system: SK-MEL-5
NCI-H226 = test system: NCI-H226
SR = test system: SR
EKVX = test system: EKVX
M14 = test system: M14
Malme-3M = test system: Malme-3M
A498 = test system: A498
MOLT-4 = test system: MOLT-4
SK-OV-3 = test system: SK-OV-3
HCT-15 = test system: HCT-15
NCI-H23 = test system: NCI-H23
M19-MEL = test system: M19-MEL
SNB-78 = test system: SNB-78
HCC 2998 = test system: HCC 2998
OVCAR-3 = test system: OVCAR-3
SN12C = test system: SN12C
CAKI-1 = test system: CAKI-1
CCRF-CEM = test system: CCRF-CEM
SF-539 = test system: SF-539
DLD-1 = test system: DLD-1
IGROV-1 = test system: IGROV-1
A549 = test system: A549
UACC-62 = test system: UACC-62
HOP-62 = test system: HOP-62
UO-31 = test system: UO-31
786-0 = test system: 786-0
OVCAR-4 = test system: OVCAR-4
U-251 = test system: U-251
HL-60 = test system: HL-60
SNB-19 = test system: SNB-19
ACHN = test system: ACHN
SF-295 = test system: SF-295
HT-29 = test system: HT-29
K562 = test system: K562
DMS-114 = test system: DMS-114
RXF 393 = test system: RXF 393
HOP-92 = test system: HOP-92
SK-MEL-28 = test system: SK-MEL-28
LOX IMVI = test system: LOX IMVI
SF-268 = test system: SF-268

For `CC(=O)Nc1ccc(S(=O)(=O)N/N=C(\C)CN2C(=O)c3ccccc3C2=O)cc1`, the GI50 (LXFL 529) was > 100 µM (inactive), the GI50 (HCT-116) was > 100 µM (inactive) and the GI50 (SK-MEL-2) was > 100 µM (inactive). For the same compound, the GI50 (OVCAR-5) was > 100 µM (inactive), the GI50 (NCI-H522) was > 100 µM (inactive) and the GI50 (KM12) was > 100 µM (inactive). The GI50 (KM-20L2) was > 100 µM (inactive), the GI50 (UACC-257) was > 100 µM (inactive) and the GI50 (COLO 205) was > 100 µM (inactive). The GI50 (OVCAR-8) was > 100 µM (inactive), the GI50 (RPMI-8226) was > 100 µM (inactive) and the GI50 (NCI-H460) was > 100 µM (inactive). For the same compound, the GI50 (SNB-75) was 75.5 µM (inactive), the GI50 (DMS-273) was > 100 µM (inactive) and the GI50 (SW-620) was > 100 µM (inactive). The GI50 (HOP-18) was > 100 µM (inactive), the GI50 (TK-10) was > 100 µM (inactive) and the GI50 (SK-MEL-5) was > 100 µM (inactive). The GI50 (NCI-H226) was > 100 µM (inactive), the GI50 (SR) was > 100 µM (inactive) and the GI50 (EKVX) was > 100 µM (inactive). The GI50 (M14) was > 100 µM (inactive), the GI50 (Malme-3M) was > 100 µM (inactive) and the GI50 (A498) was > 100 µM (inactive). For the same compound, the GI50 (MOLT-4) was > 100 µM (inactive), the GI50 (SK-OV-3) was > 100 µM (inactive) and the GI50 (HCT-15) was greater than 100 µM. For the same compound, the GI50 (NCI-H23) was > 100 µM (inactive), the GI50 (M19-MEL) was > 100 µM (inactive) and the GI50 (SNB-78) was > 100 µM (inactive). The GI50 (HCC 2998) was > 100 µM (inactive), the GI50 (OVCAR-3) was > 100 µM (inactive) and the GI50 (SN12C) was 55.2 µM (inactive). For the same compound, the GI50 (CAKI-1) was > 100 µM (inactive), the GI50 (CCRF-CEM) was > 100 µM (inactive) and the GI50 (SF-539) was > 100 µM (inactive). For the same compound, the GI50 (DLD-1) was > 100 µM (inactive), the GI50 (IGROV-1) was > 100 µM (inactive) and the GI50 (A549) was > 100 µM (inactive). The GI50 (UACC-62) was > 100 µM (inactive), the GI50 (HOP-62) was > 100 µM (inactive) and the GI50 (UO-31) was > 100 µM (inactive). The GI50 (786-0) was > 100 µM (inactive), the GI50 (OVCAR-4) was > 100 µM (inactive) and the GI50 (U-251) was > 100 µM (inactive). For the same compound, the GI50 (HL-60) was > 100 µM (inactive), the GI50 (SNB-19) was > 100 µM (inactive) and the GI50 (ACHN) was > 100 µM (inactive). For the same compound, the GI50 (SF-295) was > 100 µM (inactive), the GI50 (HT-29) was > 100 µM (inactive) and the GI50 (K562) was > 100 µM (inactive).
`O=c1cc(-c2ccccc2)[nH]c2cc(Cl)cc(Cl)c12` was tested, and the GI50 (LXFL 529) was 67.8 µM (inactive), the GI50 (HCT-116) was 31.6 µM (inactive) and the GI50 (DMS-114) was 26.4 µM (inactive). The GI50 (SK-MEL-2) was 46.1 µM (inactive), the GI50 (OVCAR-5) was > 100 µM (inactive) and the GI50 (NCI-H522) was 12.1 µM (inactive). The GI50 (RXF 393) was 15.2 µM (inactive), the GI50 (KM12) was 5.04 µM (inactive) and the GI50 (UACC-257) was > 100 µM (inactive). The GI50 (HOP-92) was 25.5 µM (inactive), the GI50 (COLO 205) was > 100 µM (inactive) and the GI50 (OVCAR-8) was 26.1 µM (inactive). For the same compound, the GI50 (RPMI-8226) was > 100 µM (inactive), the GI50 (NCI-H460) was 59 µM (inactive) and the GI50 (SNB-75) was 10.3 µM (inactive). The GI50 (DMS-273) was 12.3 µM (inactive), the GI50 (SW-620) was > 100 µM (inactive) and the GI50 (SK-MEL-28) was > 100 µM (inactive). The GI50 (HOP-18) was 20.8 µM (inactive), the GI50 (TK-10) was 46.1 µM (inactive) and the GI50 (SK-MEL-5) was 37.8 µM (inactive). The GI50 (NCI-H226) was 37.8 µM (inactive), the GI50 (SR) was 3.16 µM (inactive) and the GI50 (M14) was > 100 µM (inactive). The GI50 (Malme-3M) was 20.6 µM (inactive), the GI50 (MOLT-4) was > 100 µM (inactive) and the GI50 (SK-OV-3) was 23.6 µM (inactive). For the same compound, the GI50 (HCT-15) was 6.79 µM, the GI50 (NCI-H23) was 57.7 µM (inactive) and the GI50 (M19-MEL) was 35.5 µM (inactive). The GI50 (SN12C) was 69 µM (inactive), the GI50 (CAKI-1) was 49 µM (inactive) and the GI50 (CCRF-CEM) was > 100 µM (inactive). For the same compound, the GI50 (SF-539) was 29.5 µM (inactive), the GI50 (DLD-1) was > 100 µM (inactive) and the GI50 (IGROV-1) was 52.7 µM (inactive). For the same compound, the GI50 (LOX IMVI) was 70 µM (inactive), the GI50 (A549) was 53.3 µM (inactive) and the GI50 (UACC-62) was 23.2 µM (inactive). For the same compound, the GI50 (HOP-62) was 25.8 µM (inactive), the GI50 (UO-31) was 84.7 µM (inactive) and the GI50 (786-0) was 22 µM (inactive). For the same compound, the GI50 (OVCAR-4) was 20.5 µM (inactive), the GI50 (U-251) was 31.1 µM (inactive) and the GI50 (HL-60) was > 100 µM (inactive). For the same compound, the GI50 (SF-268) was 28.4 µM (inactive), the GI50 (ACHN) was 43.9 µM (inactive) and the GI50 (SF-295) was 27 µM (inactive). The GI50 (HT-29) was > 100 µM (inactive) and the GI50 (K562) was 7.31 µM (inactive).
